Measurements from patent publication US20040266862A1, “Method of improving animal tissue quality by supplementing the animal diet with mixed tocotrienols” (priority 2003, published 2004).
Marks after values point to notes of the source that are not given here.

Tests used:
Format in all cases: in vivo
[1] = test system: cattle; assay: 2002-03 cattle feed test: raw ribeye steak Hunter Lab color evaluation
Excerpt: (§1) Applicants also assessed the effects of antioxidant supplementation on beef quality in an experiment in which ground beef and steaks from cattle fed one of four dietary treatments were compared. Forty steers (average weight 1082 lbs.) were blocked by weight (heavy or light) and assigned to eight outdoor group pens. Pens were randomly assigned within weight blocks to four dietary treatments (two pens per dietary treatment): control, 300 ppm gamma-tocopherol, 150 ppm MT or 300 ppm MT. As in the swine and poultry feed trials, the MT supplement was obtained commercially from Fuji Chemical Industries (U.S.A.) Inc. of Robbinsville, N.J., and contained 7.5% alpha-, 12.3% gamma- and 3.0% delta-tocotrienol for a total MT content of 22.8 wt %, as well as 7.2% alpha-tocopherol. The control diet was not supplemented with even the NRC (1996) recommended level of vitamin E (15 to 60 ppm).
(§2) The steers were fed rolled corn diets with added cottonseed hulls that contained little or no vitamin E. The corn grain used in this trial was more than two years old so that it would be largely depleted of vitamin E. The steers were gradually adapted to an 80% grain-based diet and fed the low vitamin E diet for over one month prior to the start of the dietary supplementation period. Steers then were fed their respective dietary treatments for 54 days, starting Dec. 18, 2002 and ending Feb. 10, 2003.
(§3) The dietary treatments were top-dressed onto the feed and mixed with the morning daily feed. The target level for feeding gamma-tocopherol was calculated to be 2 g per animal per day. Mineral oil was used as a carrier for the gamma-tocopherol. The two target amounts of mixed tocotrienols were equivalent to, or half of, the gamma tocopherol level. The MT compounds were diluted with cornmeal to supply the required amount of mixed tocotrienols.
(§4) On the day following delivery of the beef rib sections to Kansas State University, ribs were boned out, vacuum packaged, and held at approximately (2° C.) until thirteen days postmortem, at which time the ribs were faced at the 13th rib region. The ribs were cut into 2.54 cm thick ribeye steaks, one steak from each rib to be used for color appraisal under retail display conditions and one steak for sensory evaluation. The steaks for sensory evaluation were vacuum-packaged and frozen.
(§5) The ribeye steaks utilized for color evaluation were placed onto 17S foam trays with meat, fish, and poultry pads (Dri-Loc AC-50) and wrapped with polyvinyl chloride film. The packaged steaks were placed under simulated retail display at 34±3° F. under 1614 lux (150±5 foot candles) light intensity in open-top display cases. The cases were programmed to defrost twice daily at 12-hour intervals. Case temperature was monitored using temperature recorders. An eight-member trained panel assigned subjective color and discoloration scores on days 0, 1, 2, 3, 4, 5 and 7. Pre-storage color was evaluated on an eight point scale. Panelists evaluated post-13 day storage color using a five-point scale with 0.5 intervals. Minolta color measurements were taken on days 0 and 7 using a Hunter Lab MiniScan™ Spectrophotometer (1.25 inch diameter aperture).

[2] = test system: cattle; assay: 2002-03 cattle feed test: raw ribeye steak subjective color; details: 300 ppm in diet
Excerpt: as §1, §2, §3, §4, §5

[3] = test system: cattle; assay: 2002-03 cattle feed test: TBARS content of raw ribeye steaks; details: 300 ppm in diet
Excerpt: as §1, with “The control diet was not supplemented with even the NRC (1996) recommended level of vitamin E (15 to 60 ppm).” left out
(§6) The dietary treatments were top-dressed onto the feed and mixed with the morning daily feed. The target level for feeding gamma-tocopherol was calculated to be 2 g per animal per day. […]
The ribeye steaks utilized for color evaluation were placed onto 17S foam trays with meat, fish, and poultry pads (Dri-Loc AC-50) and wrapped with polyvinyl chloride film. […] Case temperature was monitored using temperature recorders. […] Pre-storage color was evaluated on an eight point scale. Panelists evaluated post-13 day storage color using a five-point scale with 0.5 intervals. […]

[4] = test system: cattle; assay: 2002-03 cattle feed test: moisture, fat and TBARS content of raw ground beef patties; details: 300 ppm in diet
Excerpt: as §1, with “ppm). […]” for “ppm).”
as §6
Four pounds of lean and one pound of fat were harvested from each steer and mixed to produce ground beef patties with a targeted fat content of 20%. […] The pre- and post-display ground beef patties were analyzed for oxidative stability by determining their TBARS concentration.

[5] = test system: cattle; assay: 2002-03 cattle feed test: sensory characteristics of cooked ribeye steaks; details: freshly cooked ribeye steaks; scale of 1 to 8; 300 ppm in diet
Excerpt: as §1, §2, §3, §4
The frozen ribeye steaks designated for sensory evaluation were thawed for >24 hours at 3-4° C. and cooked in a Blodgett oven set at 163° C. The steaks were turned at 40° C. and removed from the oven at 70° C. The cooked steaks were cut into 2.54 cm×1.25 cm×1.25 cm cubes. The cubes were placed in double boilers and held warm on burners set at 107° C. until serving. Each panelist received two cubes in random order with a maximum of eight samples per session. An eight-point scale with 0.5 increments was used to score sensory attributes, with 8 being most tender, flavorful, or juicy and 1 being the least tender, flavorful, or juicy.

With `Cc1c(O)cc2c(c1C)O[C@](C)(CCC[C@H](C)CCC[C@H](C)CCCC(C)C)CC2` [GT, gamma-tocopherol] the “Pre-display pH” value ([1]; 300 ppm in diet) was 5.53, the “Hunter L” value ([1]; display Day 0, 300 ppm in diet) was 41.35 and the Hunter a ([1]; display Day 0, 300 ppm in diet) was 32.82. The Hunter b ([1]; display Day 0, 300 ppm in diet) was 25.33, the “Hunter L” value ([1]; display Day 7, 300 ppm in diet) was 40.03^b and the Hunter a ([1]; display Day 7, 300 ppm in diet) was 30.26^b. The Hunter b ([1]; display Day 7, 300 ppm in diet) was 23.35^b, the subjective color score ([2]; Pre-storage, eight point scale (1.0 = Bleached red, 8.0 = Very dark red)) was 4.34 and the subjective color score ([2]; post-13 day storage, display Day 0, five-point scale (1.0 = Very bright cherry red, 5.0 = Very dark red/purple to brown)) was 2.19. For the same compound, the subjective color score ([2]; post-13 day storage, display Day 1, five-point scale) was 2.28, the subjective color score ([2]; post-13 day storage, display Day 2, five-point scale) was 2.29 and the subjective color score ([2]; post-13 day storage, display Day 3, five-point scale) was 2.61. For the same compound, the subjective color score ([2]; post-13 day storage, display Day 4, five-point scale) was 2.80^b, the subjective color score ([2]; post-13 day storage, display Day 5, five-point scale) was 3.02^b and the subjective color score ([2]; post-13 day storage, display Day 7, five-point scale) was 3.29^b. The TBARS content ([3]; Post-display) was 0.411^b Mg Malonaldehyde/1000 g steak, the TBARS content ([3]; Pre-display) was 0.076 Mg Malonaldehyde/1000 g steak and the TBARS content ([4]; Post-display (5 days retail display)) was 0.663^ab Mg Malonaldehyde/1000 g ground beef. For the same compound, the TBARS content ([4]; Pre-display) was 0.173 Mg Malonaldehyde/1000 g ground beef, the Flavor intensity [5] was 5.9 and the Juiciness [5] was 5.7. The Off-flavor intensity [5] was 7.7, the Overall tenderness [5] was 6.1^a and the Warmed over flavor [5] was 8.0.
